{
  "source": "patent US5985968A",
  "about": "“Surface tension reduction with N,N-dialkyl ureas” (Air Products and Chemicals, Inc., priority 1997, dated 1999)",
  "assay_type_in_all_cases": "physicochemical",
  "key": {"[1]": {"experiment": "Dynamic surface tension of aqueous solutions, maximum-bubble-pressure method", "conditions": "about 23° C.", "from_the_text": "This invention relates to the use of compounds of the formula [drawing 3] where R1 and R2 are independently C1 to C6 alkyl or cycloalkyl with the total number of carbons in R and R' being 6-12 for the reduction of equilibrium and dynamic surface tension in water-based formulations containing an organic compound, particularly coating, ink, and agricultural formulations. […] The maximum-bubble-pressure method of measuring surface tension is described in Langmuir 1986, 2, 428-432, which is incorporated by reference.\nIn the following examples dynamic surface tension data were generated for aqueous solutions of the indicated compounds using the maximum-bubble-pressure method at the indicated bubble rates, i.e., bubbles/second (b/s), and room temperature of about 23° C. The equipment used was a Kruss BP 2 bubble pressure tensiometer.\n(§1) A saturated solution in distilled water of N,N'-di-n-butylurea was prepared by placing 0.1 g of the urea into 99.9 g of water and shaking the mixture for 1-2 h. […] The solids were removed by filtration, and the dynamic surface tension of the resulting solution was measured using the maximum bubble pressure method at bubble rates from 0.1 to 20 b/s. […] In practical terms, high bubble rates correspond to high printing speeds in lithographic or ink-jet printing, high spray or roller velocities in coating applications, and rapid application rates for agricultural products.\nAqueous solutions of N,N-dibutylurea were prepared and their surface tensions were measured using the procedure described above."}, "[2]": {"experiment": "Solubility in water (saturated solution / solubility limit)", "conditions": "in water", "protocol": "A series of aqueous solutions of various concentrations of n-octylurea [Pfaltz & Bauer] was prepared by placing the urea into water and shaking the mixture for 1-2 h. All of the urea dissolved in the low concentration samples. Undissolved urea in some of the higher concentration samples was remove by filtration. Surface tensions of these solutions were measured using the Wilheimy plate technique. This method provides equilibrium surface tension values. Equilibrium values are always equal to or lower than those obtained under dynamic conditions.\nas §1\nA saturated solution in distilled water of N,N-di-(2-ethylhexyl)urea was prepared by placing 0.1 g of the urea into 99.9 g of water and shaking the mixture for 1-2 h. […] The solids were removed by filtration, and the surface tension of the resulting solution was measured as described above.\nSimilarly, a saturated solution in distilled water of N,N-di-n-octylurea was prepared by placing 0.1 g of the urea into 99.9 g of water and shaking the mixture for 1-2 hr. […] The solids were removed by filtration, and the surface tension of the resulting solution was measured as described above.\nA saturated solution in distilled water of N,N-di-n-hexylurea was prepared by placing 0.1 g of the urea into 99.9 g of water and shaking the mixture for 1-2 h. […] The solids were removed by filtration, and the surface tension of the resulting solution was measured as described above."}, "[3]": {"experiment": "Foaming properties of 0.1 wt % solution, procedure based upon ASTM D 1173-53", "protocol": "The foaming properties of a 0.1 wt % solution of N,N-dibutylurea, N,N-dipentyl-urea, and N,N-dihexylurea were examined using a procedure based upon ASTM D 1173-53. In this test, a 0.1 wt % solution of the surfactant is added from an elevated foam pipette to a foam receiver containing the same solution. The foam height is measured at the completion of the addition (\"Initial Foam Height\") and the time required for the foam to dissipate is recorded (\"Time to 0 Foam\"). This test provides a comparison between the foaming characteristics of various surfactant solutions. In general, in coatings, inks, and agricultural formulations, foam is undesirable because is complicates handling and can lead to coating and print defects, and to inefficient application of agricultural materials."}},
  "data": [
    {"substance": "N,N-dipentylurea", "values": [
      {"measurement": "Dynamic Surface Tension", "setting": "[1]; 0.1 wt %, 0.1 b/s", "value": 36.3, "unit": "dyne/cm"},
      {"measurement": "Dynamic Surface Tension", "setting": "[1]; 0.1 wt %, 1 b/s", "value": 37.1, "unit": "dyne/cm"},
      {"measurement": "Dynamic Surface Tension", "setting": "[1]; 0.1 wt %, 6 b/s", "value": 38.7, "unit": "dyne/cm"},
      {"measurement": "Dynamic Surface Tension", "setting": "[1]; 0.1 wt %, 15 b/s", "value": 40.7, "unit": "dyne/cm"},
      {"measurement": "Dynamic Surface Tension", "setting": "[1]; 0.1 wt %, 20 b/s", "value": 41.3, "unit": "dyne/cm"},
      {"measurement": "Dynamic Surface Tension", "setting": "[1]; 0.2 wt %, 0.1 b/s", "value": 32.8, "unit": "dyne/cm"},
      {"measurement": "Dynamic Surface Tension", "setting": "[1]; 0.2 wt %, 1 b/s", "value": 33.4, "unit": "dyne/cm"},
      {"measurement": "Dynamic Surface Tension", "setting": "[1]; 0.2 wt %, 6 b/s", "value": 34.6, "unit": "dyne/cm"},
      {"measurement": "Dynamic Surface Tension", "setting": "[1]; 0.2 wt %, 15 b/s", "value": 36.2, "unit": "dyne/cm"},
      {"measurement": "Dynamic Surface Tension", "setting": "[1]; 0.2 wt %, 20 b/s", "value": 36.3, "unit": "dyne/cm"},
      {"measurement": "Dynamic Surface Tension", "setting": "[1]; 0.3 wt %, 0.1 b/s", "value": 30.9, "unit": "dyne/cm"},
      {"measurement": "Dynamic Surface Tension", "setting": "[1]; 0.3 wt %, 1 b/s", "value": 31.5, "unit": "dyne/cm"},
      {"measurement": "Dynamic Surface Tension", "setting": "[1]; 0.3 wt %, 6 b/s", "value": 32.4, "unit": "dyne/cm"},
      {"measurement": "Dynamic Surface Tension", "setting": "[1]; 0.3 wt %, 15 b/s", "value": 32.9, "unit": "dyne/cm"},
      {"measurement": "Dynamic Surface Tension", "setting": "[1]; 0.3 wt %, 20 b/s", "value": 33.1, "unit": "dyne/cm"},
      {"measurement": "solubility limit", "setting": "[2]", "value": 0.3, "unit": "wt %"},
      {"measurement": "Initial Foam Height", "setting": "[3]", "value": 1.5, "unit": "cm"},
      {"measurement": "Time to 0 Foam", "setting": "[3]", "value": 3, "unit": "s"}
    ]}
  ]
}
